Measurements from ChEMBL document CHEMBL2346549, “Vavilosides A1/A2-B1/B2, new furostane glycosides from the bulbs of Allium vavilovii with cytotoxic activity” (Bioorg Med Chem, 2013).

Columns and labels:
[1] = tested on: J774; assay: Cytotoxicity against mouse J774 cells assessed as growth inhibition after 72 hrs by MTT assay; type: functional, cell-based; settings: J774, 72 h
[2] = tested on: WEHI-164; assay: Cytotoxicity against mouse WEHI164 cells assessed as growth inhibition after 72 hrs by MTT assay; type: functional, cell-based; settings: WEHI-164, 72 h

C[C@H](CCC1(O)O[C@H]2C[C@H]3[C@@H]4CC=C5C[C@@H](O)C[C@@H](O[C@@H]6OC[C@@H](O)[C@H](O)[C@H]6O[C@@H]6O[C@@H](C)[C@H](O)[C@@H](O)[C@H]6O)[C@]5(C)[C@H]4CC[C@]3(C)[C@H]2[C@@H]1C)CO[C@@H]1O[C@@H](C)[C@H](O)[C@@H](O)[C@H]1O (mixture of isomers)
IC50 [1]: 3.5 µg/mL
IC50 [2]: 3.1 µg/mL

C[C@H](CCC1(O)O[C@H]2C[C@H]3[C@@H]4CC=C5C[C@@H](O)C[C@@H](O[C@@H]6O[C@H](CO)[C@H](O)[C@H](O)[C@H]6O[C@@H]6O[C@@H](C)[C@H](O)[C@@H](O)[C@H]6O)[C@]5(C)[C@H]4CC[C@]3(C)[C@H]2[C@@H]1C)CO[C@@H]1O[C@@H](C)[C@H](O)[C@@H](O)[C@H]1O (mixture of isomers)
IC50 [1]: 5.1 µg/mL
IC50 [2]: 4.7 µg/mL

C[C@H](CCC1(O)O[C@H]2C[C@H]3[C@@H]4CC=C5C[C@@H](O)C[C@@H](O[C@@H]6O[C@H](CO)[C@H](O)[C@H](O)[C@H]6O)[C@]5(C)[C@H]4CC[C@]3(C)[C@H]2[C@@H]1C)CO[C@@H]1O[C@H](CO)[C@@H](O)[C@H](O)[C@H]1O[C@@H]1O[C@@H](C)[C@H](O)[C@@H](O)[C@H]1O (mixture of isomers) [ASCALONICOSIDE A1/A2]
IC50 [1]: 4 µg/mL
IC50 [2]: 3.7 µg/mL
